Data taken from patent publication US20260209249A1, “NOVEL TRICYCLIC COMPOUND AS KRAS G12D INHIBITOR, AND USE THEREOF” (SK Biopharmaceuticals Co., priority 2022, published 2026).

What was measured:
[1] = molecular target: T1, GDP-KRAS G12D mutant protein (Homo sapiens, UniProt P01116, G12D); assay: Differential scanning fluorimetry (DSF) binding affinity to GDP-KRAS G12D mutant protein; conditions: DSF thermal shift, 10 μM compound, 4 μg KRAS protein
T1 construct: purchased Daegu Gyeongbuk Medical Innovation Foundation (DGMIF), made to order
Summary of the method: (§1)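 Thermal shift ΔTm was measured at 10 μM compound over a 25–99 °C ramp (0.05 °C/s), read at 580 nm ex/623 nm em with SYPRO Orange (2×). The protein (4 μg) was preincubated with compound for 30 min at room temperature, in 50 mM HEPES pH 7.5 for GppNHp-KRAS G12D or in kit buffer for GDP-KRAS G12D.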

[2] = molecular target: T2, GppNHp-KRAS G12D mutant protein (Homo sapiens, UniProt P01116, G12D); assay: Differential scanning fluorimetry (DSF) binding affinity to GppNHp-KRAS G12D mutant protein; conditions: DSF thermal shift, 10 μM compound, 4 μg KRAS protein, 50 mM HEPES (pH 7.5)
T2 construct: purchased Daegu Gyeongbuk Medical Innovation Foundation (DGMIF), made to order
Summary of the method: as §1

[3] = system: ERK phosphorylation (pERK) induced by KRAS G12D mutation; assay: Inhibitory activity against ERK phosphorylation (pERK) induced by KRAS G12D mutation, immunofluorescence assay in AsPC-1 cells; assay type: cell-based; conditions: Homo sapiens, ASPC1, 3 h drug treatment, pERK (Thr202/Tyr204) signal normalized to DAPI
Summary of the method: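 AsPC-1 cells attached 16 h, then treated 3 h with 3-fold dilutions from 10 μM top. Fixed, permeabilized, immunostained for pERK (Thr202/Tyr204) with Alexa 488 secondary; high-content imaging, signal normalized to DAPI and to DMSO, IC50 from four-parameter fit.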

[4] = system: KRAS G12D mutant pancreatic cancer cell line AsPC-1; assay: Cell viability assay using KRAS G12D mutant cells (AsPC-1, 3D culture, celltiter-glo 3D); assay type: cell-based; conditions: Homo sapiens, ASPC1, 5th day after compound treatment
Summary of the method: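 AsPC-1 cells in 3D culture, 1000 cells/well, treated next day with 1/5 serial dilutions from 10 μM or 50 μM, 1:1 v/v. Viability read by CellTiter-Glo 3D on day 5, normalized to DMSO (100%) and untreated backgrounds; IC50 from four-parameter sigmoidal fit.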

| SMILES | GDP-KRAS G12D (ΔTmD, ° C.) [1] [°C] | GppNHp-KRAS G12D (ΔTmD, ° C.) [2] [°C] | IC50 [3] [nM] | IC50 [4] [nM] |
| --- | --- | --- | --- | --- |
| C#Cc1c(F)ccc2cc(O)cc(-c3cc4nc(OC[C@@]56CCCN5C[C@H](F)C6)nc(N5C[C@H]6CC[C@@H](C5)N6)c4n4ccnc34)c12 [Example 2, 4-(1-((1 R,5S)-3,8-diazabicyclo[3.2.1]octan-3-yl)-3-(((2R,7aS)-2-fluorotetrahydro-1H-pyrrolizin-7a(5H)-yl)methoxy)imidazo[1′,2′:1,6]pyrido[3,2-d]pyrimidin-6-yl)-5-ethynyl-6-fluoronaphthalen-2-ol] | 9.91 | 5.61 | 169 | 226 |
| C#Cc1c(F)ccc2cc(N)cc(-c3cc4nc(OC[C@@]56CCCN5C/C(=C\F)C6)nc(N5C[C@H]6CC[C@@H](C5)N6)c4c4cn(C)nc34)c12 [Example 74, 4-(9-((1R,5S)-3,8-diazabicyclo[3.2.1]octan-3-yl)-7-(((S,Z)-2-(fluoromethylene)tetrahydro-1H-pyrrolizin-7a(5H)-yl)methoxy)-2-methyl-2H-pyrazolo[4,3-f]quinazolin-4-yl)-5-ethynyl-6-fluoronaphthalen-2-amine] | 7.82 | 5.30 | 143 | 110 |
